Measured values: patent publication US11304957B2, “Substituted quinazolines for inhibiting kinase activity” (NeuPharma, Inc., priority 2013, dated 2022)
pIC50: −log10 of the molar value.

What was measured:
[1] = target: EGFR (ErbB1) T790M L858R (Homo sapiens (Human), UniProt P00533, L858R/T790M); assay: Z'-LYTE kinase inhibition assay, EGFR L858R/T790M; assay type: biochemical; conditions: for inhibition at 0.0137 µM: read-out: % inhibition EGFR L858R/T790M (Compound at 0.0137 μM)
Protocol: Inhibitory activities of compounds against BTK, EGFR and EGFR mutants (EGFR L858R, EGFR T790M, EGFR L858R/T790M), FGFR1, FGFR2, JAK2, JAK3 and KDR were measured by Invitrogen using Z'-LYTE® Method as briefly described in the following. Test Compounds are screened in 1% DMSO (final) in the well. For 10 point titrations, 3-fold serial dilutions are conducted from the starting concentration. All ATP Solutions are diluted to a 4× working concentration in Kinase Buffer (50 mM HEPES pH 7.5, 0.01% BRIJ-35, 10 mM MgCl2, 1 mM EGTA). Peptide/Kinase Mixtures are diluted to a 2× working concentration in the appropriate Kinase Buffers as described below. (iv) Peptide/Kinase Mixtures for Measurement of EGFR (ErbB1) T790M L858R: The 2×EGFR (ErbB1) […] mixture is prepared in 50 mM HEPES pH 6.5, 0.01% BRIJ-35, 10 mM MgCl2, 1 mM EGTA, 0.02% NaN3. […] After the 1 hour Kinase Reaction incubation, 5 μL of a 1:64 dilution of Development Reagent B is added. Reaction starts by 30-second shaking of mixture consisting of 2.5 μL 4× test compound, 5 μL 2× kinase reaction mixture and 2.5 μL 4×ATP Solution on Bar-coded Corning, low volume NBS, black 384-well plate (Corning Cat. #3676). Then the mixture is incubated for 60-minute at room temperature for the kinase reaction, followed by addition of 5 μL of a 1:1024 dilution of development reagent A and 30-second plate shake. The mixture is then incubated for another 60-minute at room temperature for development reaction. Finally fluorescence is read by plate reader. To determine IC50 of a compound against EGFR, EGFR mutant and other kinases, a series of concentrations of the compound were tested for the inhibition.

[2] = test system: H1975 tumor xenograft; assay: Inhibition of tumor growth in H1975 xenograft model; assay type: in vivo, BALB/c female nude mice; conditions: Table 7, 60 mg/kg, oral, QD × 14; for Tumor Volume Pre-treatment: baseline
Protocol: H1975 cells were implanted in BALB/c female nude mice and grown as tumor xenografts. When tumors achieved 120-200 mm^3, mice were assigned into treatment and control groups using randomized block design based upon their tumor volumes. Each group contained 6 tumor-bearing mice. Tumors were measured twice weekly in two dimensions using a caliper, and the tumor volume was calculated from two-dimensional measurements using the equation V=0.5×a×b^2 where a and b are the long and short diameters of the tumor, respectively. Relative tumor volume (RTV) was defined as TVt/TVi, the ratio of the volume on a given day (TVt) and the volume at the start of treatment (TVi). Relative tumor growth rate (T/C) was defined as RTVT/RTVC, the ratio of relative tumor volume of treatment group (RTVT) and relative tumor volume of control group (RTVC) on a given day. Inhibition of tumor growth in a H1975 tumor xenograft model by some compounds is shown below in Table 6 and Table 7.

[3] = test system: H1975 cells; assay: Inhibition of cancer cell growth, MTT assay, H1975; conditions: read-out: IC50 H1975, 72 h, EGFR L858R/T790M
Protocol: Inhibition of cell growth by compounds was measured using MTT assay (Mosmann, T., Journal of Immunological Methods, 1983, 65, 55-63). Tumor cell lines were purchased from ATCC (American Type Culture Collection, Manassas, Va.). All cell lines were maintained in RPMI 1640 (Hyclone) supplemented with 10% fetal bovine serum (FBS, Hyclone), glutamine (2 mM, Hyclone), and antibiotics (penicillin 100 U/mL and streptomycin 50 μg/mL) at 37° C. in a humidified atmosphere of 5% CO2 in air. Taxol (as a positive control, Sigma) and compounds were dissolved in DMSO (Sigma), and the final concentration of DMSO in the medium was 1%. Tumor cells were plated in 96-well plates at densities of about 4000 cells/well of a 96-well plate and allowed to adhere/grow for 24 h. They were then treated with various concentrations of drug for 72 h. […] The number of cells remaining after 72 h was compared to the number of viable cells at the time of compound addition by measuring the absorbance at 570 nm, allowing for the calculation of growth inhibition.
All concentrations of compounds were tested in triplicate and controls were averaged over 4 wells. IC50 was calculated by plotting the concentration of compound vs the percentage of inhibition in treated wells using GraphPad Prism 5. […]

[4] = target: EGFR (ErbB1) (Homo sapiens (Human), UniProt P00533); assay: Z'-LYTE kinase inhibition assay, EGFR (ErbB1); assay type: biochemical
Protocol: Inhibitory activities of compounds against BTK, EGFR and EGFR mutants (EGFR L858R, EGFR T790M, EGFR L858R/T790M), FGFR1, FGFR2, JAK2, JAK3 and KDR were measured by Invitrogen using Z'-LYTE® Method as briefly described in the following. Test Compounds are screened in 1% DMSO (final) in the well. For 10 point titrations, 3-fold serial dilutions are conducted from the starting concentration. All ATP Solutions are diluted to a 4× working concentration in Kinase Buffer (50 mM HEPES pH 7.5, 0.01% BRIJ-35, 10 mM MgCl2, 1 mM EGTA). Peptide/Kinase Mixtures are diluted to a 2× working concentration in the appropriate Kinase Buffers as described below. (i) Peptide/Kinase Mixtures for Measurement of EGFR (ErbB1): The 2×EGFR (ErbB1)/[…] mixture is prepared in 50 mM HEPES pH 7.5, 0.01% BRIJ-35, 10 mM MgCl2, 4 mM MnCl2, 1 mM EGTA, 2 mM DTT. The final 10 μL Kinase Reaction consists of 1.1-5.25 ng EGFR (ErbB1) and 2 μM […] in 50 mM HEPES pH 7.5, 0.01% BRIJ-35, 10 mM MgCl2, 2 mM MnCl2, 1 mM EGTA, 1 mM DTT. After the 1 hour Kinase Reaction incubation, 5 μL of a 1:64 dilution of Development Reagent B is added. Reaction starts by 30-second shaking of mixture consisting of 2.5 μL 4× test compound, 5 μL 2× kinase reaction mixture and 2.5 μL 4×ATP Solution on Bar-coded Corning, low volume NBS, black 384-well plate (Corning Cat. #3676). […] Finally fluorescence is read by plate reader. […]

Chain of EGFR (ErbB1) T790M L858R (P00533 25-1210 T790M/L858R): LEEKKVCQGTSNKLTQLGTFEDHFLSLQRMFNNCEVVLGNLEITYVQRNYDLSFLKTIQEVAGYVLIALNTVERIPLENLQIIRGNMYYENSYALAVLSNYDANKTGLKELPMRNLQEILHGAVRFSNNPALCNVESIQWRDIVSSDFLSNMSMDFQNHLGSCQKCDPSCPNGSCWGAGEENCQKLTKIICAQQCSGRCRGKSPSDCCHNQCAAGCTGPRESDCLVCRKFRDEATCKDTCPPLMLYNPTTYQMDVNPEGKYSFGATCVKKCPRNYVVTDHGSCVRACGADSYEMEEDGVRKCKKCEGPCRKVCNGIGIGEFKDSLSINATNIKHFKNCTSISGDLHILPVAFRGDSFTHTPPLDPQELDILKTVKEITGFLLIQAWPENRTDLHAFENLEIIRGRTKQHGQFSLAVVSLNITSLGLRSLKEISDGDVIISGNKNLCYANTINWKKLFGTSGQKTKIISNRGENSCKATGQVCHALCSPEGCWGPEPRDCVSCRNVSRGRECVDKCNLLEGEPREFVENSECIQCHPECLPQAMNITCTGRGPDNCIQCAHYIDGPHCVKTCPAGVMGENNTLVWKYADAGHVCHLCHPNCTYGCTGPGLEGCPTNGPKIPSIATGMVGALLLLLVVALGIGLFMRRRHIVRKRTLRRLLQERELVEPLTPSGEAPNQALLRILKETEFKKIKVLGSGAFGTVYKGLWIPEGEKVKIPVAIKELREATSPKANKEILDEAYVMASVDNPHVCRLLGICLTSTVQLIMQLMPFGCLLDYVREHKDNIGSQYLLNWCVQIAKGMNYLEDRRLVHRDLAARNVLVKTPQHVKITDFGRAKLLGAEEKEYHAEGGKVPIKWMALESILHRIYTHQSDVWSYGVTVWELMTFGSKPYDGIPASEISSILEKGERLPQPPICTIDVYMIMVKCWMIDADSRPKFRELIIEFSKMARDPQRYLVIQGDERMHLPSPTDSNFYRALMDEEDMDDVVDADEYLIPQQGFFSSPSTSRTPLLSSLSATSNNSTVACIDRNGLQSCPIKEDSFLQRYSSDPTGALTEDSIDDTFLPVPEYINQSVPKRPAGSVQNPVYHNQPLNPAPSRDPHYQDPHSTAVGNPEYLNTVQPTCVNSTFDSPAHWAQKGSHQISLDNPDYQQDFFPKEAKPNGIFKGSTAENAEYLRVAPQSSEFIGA
Chain of EGFR (ErbB1) (P00533 25-1210): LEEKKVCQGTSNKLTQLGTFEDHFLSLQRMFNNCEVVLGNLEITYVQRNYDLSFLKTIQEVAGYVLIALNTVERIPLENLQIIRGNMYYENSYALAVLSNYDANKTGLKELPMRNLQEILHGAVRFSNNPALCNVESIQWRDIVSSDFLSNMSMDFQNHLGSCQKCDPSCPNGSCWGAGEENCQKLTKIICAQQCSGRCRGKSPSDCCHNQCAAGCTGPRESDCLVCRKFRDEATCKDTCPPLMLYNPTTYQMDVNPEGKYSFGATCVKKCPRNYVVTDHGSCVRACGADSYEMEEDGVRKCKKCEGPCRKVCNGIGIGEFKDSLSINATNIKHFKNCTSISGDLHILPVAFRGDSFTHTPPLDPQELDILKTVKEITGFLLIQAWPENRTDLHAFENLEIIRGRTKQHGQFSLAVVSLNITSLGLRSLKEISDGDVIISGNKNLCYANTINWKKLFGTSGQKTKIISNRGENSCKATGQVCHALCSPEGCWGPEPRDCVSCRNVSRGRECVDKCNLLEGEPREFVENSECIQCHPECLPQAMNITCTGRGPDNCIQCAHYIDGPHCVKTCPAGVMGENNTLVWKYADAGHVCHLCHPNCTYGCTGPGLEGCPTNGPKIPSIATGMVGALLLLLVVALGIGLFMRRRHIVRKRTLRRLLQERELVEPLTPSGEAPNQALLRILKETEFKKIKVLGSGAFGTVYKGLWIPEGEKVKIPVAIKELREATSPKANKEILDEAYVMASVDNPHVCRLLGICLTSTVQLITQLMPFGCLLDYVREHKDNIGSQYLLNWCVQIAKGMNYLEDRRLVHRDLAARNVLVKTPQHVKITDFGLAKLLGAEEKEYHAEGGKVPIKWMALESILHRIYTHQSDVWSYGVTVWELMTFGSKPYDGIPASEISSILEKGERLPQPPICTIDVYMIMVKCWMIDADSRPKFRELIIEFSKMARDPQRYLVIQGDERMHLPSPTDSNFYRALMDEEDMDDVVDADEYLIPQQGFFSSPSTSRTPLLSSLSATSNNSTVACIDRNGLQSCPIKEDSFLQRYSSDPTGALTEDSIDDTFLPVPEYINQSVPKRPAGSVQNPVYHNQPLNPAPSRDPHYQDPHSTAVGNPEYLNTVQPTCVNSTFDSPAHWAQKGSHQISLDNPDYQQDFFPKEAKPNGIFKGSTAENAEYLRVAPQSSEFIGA

SMILES	inhibition at 0.0137 µM [1]	Tumor Volume Post-treatment [2]	Tumor Volume Pre-treatment [2]	% inhibition EGFR L858R/T790M (Compound at 0.0137 μM) [1]	pIC50 [3]	% inhibition EGFR (Compound at 0.041 μM) [4]
C=CC(=O)Nc1cccc(-c2cccc3cnc(Nc4ccc(N5CCN(CCO)CC5)cc4F)nc23)c1 [Example C147, N-(3-(2-((2-fluoro-4-(4-(2-hydroxyethyl)piperazin-1-yl)phenyl)amino)quinazolin-8-yl)phenyl)acrylamide]	> 50%	898 mm^3	240 mm^3			
C=CC(=O)Nc1cccc(-c2cccc3cnc(Nc4ccc(N5CCN(CCO)CC5)c(F)c4F)nc23)c1 [Example C151, N-(3-(2-((2,3-difluoro-4-(4-(2-hydroxyethyl)piperazin-1-yl)phenyl)amino)quinazolin-8-yl)phenyl)acrylamide]	> 50%	462 mm^3	229 mm^3			
C=CC(=O)Nc1cccc(-c2cccc3cnc(Nc4ccc(N5CCN(CC(N)=O)CC5)cc4F)nc23)c1 [Example C154]				+ (less than 50% inhibition)	6.30 to 7.00	+ (less than 50% inhibition)
C=CC(=O)Nc1cccc(-c2cccc3cnc(Nc4ccc(N5CCN(C)CC5)c(F)c4F)nc23)c1 [Example C156, N-(3-(2-((2,3-difluoro-4-(4-methylpiperazin-1-yl)phenyl)amino)quinazolin-8-yl)phenyl)acrylamide]		594 mm^3	232 mm^3			
C=CC(=O)Nc1cccc(-c2cccc3cnc(Nc4ccc(N5CCN(CC(N)=O)CC5)c(F)c4)nc23)c1 [Example C164]				+ (less than 50% inhibition)	6.30 to 7.00	+ (less than 50% inhibition)
